In publication PMC6538733, “Chemical Constituents from Mentha haplocalyx Briq. (Mentha canadensis L.) and Their α-Glucosidase Inhibitory Activities” (Natural Products and Bioprospecting, 2019):

Each molecule was assayed against α-glucosidase (assay: pNPG hydrolysis assay, absorbance at […] nm).
Assay type: biochemical

| SMILES | IC50 |
| --- | --- |
| CC1=C(CC[C@H](C)O)C(C)(C)C[C@H](O[C@@H]2O[C@H](CO)[C@@H](O)[C@H](O)[C@H]2O)C1 [compound 11, (3R,9S)-megastigman-5-en-3,9-diol 3-O-β-D-glucopyranoside] | 83.4 µM |
| C=C(C)[C@@H]1CC=C(C)[C@@H](O[C@@H]2O[C@H](CO)[C@@H](O)[C@H](O)[C@H]2O)C1 [compound 4, (4R,6S)-carveol β-D-glucoside] | 919 µM |
| C=C(C)[C@@H]1CC=C(C)[C@H](O[C@@H]2O[C@H](CO)[C@@H](O)[C@H](O)[C@H]2O)C1 [compound 3, (4R,6R)-carveol β-D-glucoside] | 516 µM |
